Literature values as cited in patent publication US20130090323A1, “HETEROCYCLIC COMPOUNDS AND THEIR USES” (Amgen Inc., priority 2010, published 2013).

Assays:
[1] = tested on: mouse model of rheumatoid arthritis; details: in vivo
[2] = tested on: model of systemic lupus erythematosis; details: in vivo
murine model of asthma = details: mouse, in vivo
p110δ = target: T1, p110δ (Homo sapiens, UniProt O00329)
T1 sequence (O00329 1-1044): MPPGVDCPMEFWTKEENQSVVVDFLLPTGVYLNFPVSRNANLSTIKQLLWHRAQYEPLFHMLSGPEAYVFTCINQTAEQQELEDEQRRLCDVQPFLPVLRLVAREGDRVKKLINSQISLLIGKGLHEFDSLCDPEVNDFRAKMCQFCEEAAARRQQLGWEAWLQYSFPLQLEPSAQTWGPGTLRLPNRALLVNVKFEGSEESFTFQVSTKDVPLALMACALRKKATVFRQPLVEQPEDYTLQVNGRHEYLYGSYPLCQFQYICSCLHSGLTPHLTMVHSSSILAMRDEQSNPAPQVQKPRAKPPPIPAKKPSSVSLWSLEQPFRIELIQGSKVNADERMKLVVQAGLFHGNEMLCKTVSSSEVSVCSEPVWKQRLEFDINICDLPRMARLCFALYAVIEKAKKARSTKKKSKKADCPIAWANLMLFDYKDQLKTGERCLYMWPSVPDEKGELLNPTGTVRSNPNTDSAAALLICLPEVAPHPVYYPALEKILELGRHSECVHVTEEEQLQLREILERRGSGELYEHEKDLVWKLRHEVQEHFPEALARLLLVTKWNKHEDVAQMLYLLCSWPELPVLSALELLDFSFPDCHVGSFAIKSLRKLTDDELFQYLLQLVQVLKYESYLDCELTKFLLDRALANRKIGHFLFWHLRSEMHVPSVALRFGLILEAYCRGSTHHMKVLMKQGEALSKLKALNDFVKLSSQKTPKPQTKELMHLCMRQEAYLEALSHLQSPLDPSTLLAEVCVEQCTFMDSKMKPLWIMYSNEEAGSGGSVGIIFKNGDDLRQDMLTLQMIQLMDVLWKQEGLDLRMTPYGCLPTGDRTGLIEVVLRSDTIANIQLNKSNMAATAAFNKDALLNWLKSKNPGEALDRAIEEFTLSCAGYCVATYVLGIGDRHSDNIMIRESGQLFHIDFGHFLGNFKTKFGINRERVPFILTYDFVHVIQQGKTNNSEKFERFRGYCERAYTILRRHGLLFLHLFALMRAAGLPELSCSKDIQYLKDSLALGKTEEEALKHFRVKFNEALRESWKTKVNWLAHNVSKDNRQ

[3] = tested on: murine model of allergic disease; details: absence of functional delta (compound and p110δ D910A mice)

SMILES	efficacy in a mouse model of rheumatoid arthritis [1]	onset of disease in a model of systemic lupus erythematosis [2]	inflammation and disease in ovalbumin-induced airway inflammation (murine model of asthma)	inhibition of p110δ (p110δ)	passive cutaneous anaphylaxis (PCA) [3]	activity against any protein kinases tested (protein kinases)
O=C1NC(=O)/C(=C\c2ccc3nccnc3c2)S1 [AS 605240]	efficacious	delay onset of disease				
Cc1ccccc1-n1c(Cn2cnc3c(N)ncnc32)nc2cccc(C)c2c1=O [IC87114]			significantly ameliorate inflammation and disease	high nanomolar range (triple digit)	significantly reduced	no activity
